According to patent publication USRE47221E1, “Tricyclic compounds” (AbbVie Inc., priority 2009, dated 2019):
Counter-ions that a name gives are not always drawn.

Target: T1, Jak3 (Homo sapiens, UniProt P52333)
T1 construct: Jak3 enzyme (aa 811-1103); expressed in SF9 cells as a GST fusion; GST; made in house; host or cells: SF9 insect cells
Assay: Jak3 enzyme data for selected compounds
Type: biochemical

T1 sequence (P52333 811-1103): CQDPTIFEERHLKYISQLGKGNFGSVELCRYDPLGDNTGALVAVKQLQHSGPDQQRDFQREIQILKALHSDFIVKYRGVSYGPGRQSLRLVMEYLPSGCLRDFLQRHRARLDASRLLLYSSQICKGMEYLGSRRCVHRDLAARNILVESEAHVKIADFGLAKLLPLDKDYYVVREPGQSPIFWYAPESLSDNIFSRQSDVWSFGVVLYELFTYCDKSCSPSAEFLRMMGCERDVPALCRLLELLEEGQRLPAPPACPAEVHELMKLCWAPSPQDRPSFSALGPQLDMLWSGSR

Compound	IC50
C[C@@H]1C[C@H](OCC2CC2)C[C@@H]1c1nnc2cnc3[nH]ccc3n12 [D.1.54]	> 1000 nM
CC[C@@H]1C[C@H](NS(=O)(=O)NCCO)C[C@@H]1c1nnc2cnc3[nH]ccc3n12 [D.1.56]	100 to 1000 nM
CC[C@@H]1C[C@H](NS(=O)(=O)CCn2ccnn2)C[C@@H]1c1nnc2cnc3[nH]ccc3n12 [D.1.58]	100 to 1000 nM
CC[C@@H]1C[C@H](NS(=O)(=O)CCn2nccn2)C[C@@H]1c1nnc2cnc3[nH]ccc3n12 [D.1.59]	100 to 1000 nM
CC[C@@H]1C[C@H](NS(=O)(=O)CCN2CCC(F)(F)CC2)C[C@@H]1c1nnc2cnc3[nH]ccc3n12 [D.1.60]	> 1000 nM
CC[C@@H]1C[C@H](NS(=O)(=O)CCN2CCOCC2)C[C@@H]1c1nnc2cnc3[nH]ccc3n12 [D.1.61]	> 1000 nM
CC[C@@H]1C[C@H](NCCS(=O)(=O)N2CCC(F)(F)C2)C[C@@H]1c1nnc2cnc3[nH]ccc3n12 [D.1.62]	> 1000 nM
O=S(=O)(CCC(F)(F)F)N1CC2CC1CN2c1ncc2cnc3[nH]ccc3n12 (stereo not drawn) [D.1.63]	> 1000 nM
O=S(=O)(CCC(F)(F)F)N1CC2CN(c3ncc4cnc5[nH]ccc5n34)CC2C1 (stereo not drawn) [D.1.64]	> 1000 nM
O=S(=O)(CCC(F)(F)F)N1CCN(c2ncc3cnc4[nH]ccc4n23)CC(F)C1 (stereo not drawn) [D.1.65]	> 1000 nM
CC[C@@H]1C[C@H](NS(=O)(=O)C(C)(C)C)C[C@@H]1c1nnc2cnc3[nH]ccc3n12 [D.1.67]	100 to 1000 nM
CC1CCN(S(=O)(=O)CCC(F)(F)F)CCN1c1ncc2cnc3[nH]ccc3n12 (stereo not drawn) [D.1.70]	100 to 1000 nM
O=S(=O)(CCC(F)(F)F)NC1CCCN(c2ncc3cnc4[nH]ccc4n23)C1 (stereo not drawn) [D.1.72]	100 to 1000 nM
O=S(=O)(CCC(F)(F)F)N1CCC2CC1CN2c1ncc2cnc3[nH]ccc3n12 (stereo not drawn) [D.1.73]	> 1000 nM
O=S(=O)(NC12CCC(c3ccc4cnc5[nH]ccc5n34)(CC1)CC2)C1CC1 [D.1.76]	100 to 1000 nM
C[C@@H]1C[C@H](NS(=O)(=O)C2(C)CC2)C[C@@H]1c1ncc2cnc3[nH]ccc3n12 [D.1.77]	100 to 1000 nM
C[C@@H]1C[C@H](NS(=O)(=O)N2CC(F)(F)C2)C[C@@H]1c1ncc2cnc3[nH]ccc3n12 [D.1.78]	< 100 nM
C[C@@H]1C[C@H](NS(=O)(=O)CCC(F)(F)F)C[C@@H]1c1ncc2cnc3[nH]ccc3n12 [D.1.79]	< 100 nM
C[C@@H]1C[C@H](NS(=O)(=O)N2CCC(F)(F)C2)C[C@@H]1c1ncc2cnc3[nH]ccc3n12 [D.1.80]	< 100 nM

Compound	IC50
CC[C@@H]1C[C@H](NS(=O)(=O)C2(CC)CC2)C[C@@H]1c1nnc2cnc3[nH]ccc3n12 [D.1.82]	100 to 1000 nM
CCC1(S(=O)(=O)N[C@H]2C[C@@H](C)[C@@H](c3ncc4cnc5[nH]ccc5n34)C2)CC1 [D.1.83]	< 100 nM
CCCCC1(S(=O)(=O)N[C@H]2C[C@@H](CC)[C@@H](c3nnc4cnc5[nH]ccc5n34)C2)CC1 [D.1.84]	100 to 1000 nM
CC[C@@H]1C[C@H](NS(=O)(=O)N2CC(C#N)C2)C[C@@H]1c1nnc2cnc3[nH]ccc3n12 [D.2.5]	100 to 1000 nM
C[C@@H]1C[C@H](Nc2cccc(C#N)c2)C[C@@H]1c1nnc2cnc3[nH]ccc3n12 [D.2.6]	> 1000 nM
CC[C@@H]1C[C@H](Nc2cnc(C#N)cn2)C[C@@H]1c1nnc2cnc3[nH]ccc3n12 [D.2.11]	100 to 1000 nM
CC[C@@H]1C[C@H](Nc2cnc(C#N)cn2)C[C@@H]1c1ncc2cnc3[nH]ccc3n12 [D.2.13]	< 100 nM
N#Cc1cnc(NC[C@H]2CC[C@@H](c3ncc4cnc5[nH]ccc5n34)C2)cn1 [D.2.15]	100 to 1000 nM
CC[C@@H]1C[C@H](Nc2ccc(C#N)cn2)C[C@@H]1c1nnc2cnc3[nH]ccc3n12 [D.2.19]	100 to 1000 nM
C[C@@H]1C[C@H](Nc2cnc(C#N)cn2)C[C@@H]1c1ncc2cnc3[nH]ccc3n12 [D.2.21]	100 to 1000 nM
N#Cc1ccnc(NC[C@H]2CC[C@@H](c3nnc4cnc5[nH]ccc5n34)C2)c1 [D.2.23]	> 1000 nM
CC[C@@H]1C[C@@H](Oc2ccc(C#N)cc2)C[C@@H]1c1ncc2cnc3[nH]ccc3n12 [D.2.24]	< 100 nM
C[C@@H]1CCN(S(=O)(=O)N2CCCC2)C[C@@H]1c1ncc2cnc3[nH]ccc3n12 [DD.1.1]	< 100 nM
O=C(C1CC(F)(F)C1)N1CCC[C@@H](c2cnc3cnc4[nH]ccc4n23)C1 [Example #3, (R)-(3-(3H-imidazo[1,2-a]pyrrolo[2,3-e]pyrazin-8-yl)piperidin-1-yl)(3,3-difluorocyclobutyl)methanone]	< 100 nM
CC[C@@H]1C[C@@H](Oc2ccc(C#N)cc2)C[C@@H]1c1nnc2cnc3[nH]ccc3n12 [Example #4, 4-((1R,3R,4S)-3-ethyl-4-(6H-pyrrolo[2,3-e][1,2,4]triazolo[4,3-a]pyrazin-1-yl)cyclopentyloxy)benzonitrile]	< 100 nM
C[C@@H]1CCN(C(=NC#N)N2CCCC2)C[C@@H]1c1ncc2cnc3[nH]ccc3n12 [Example #5, N-(((3R,4R)-3-(6H-imidazo[1,5-a]pyrrolo[2,3-e]pyrazin-1-yl)-4-methylpiperidin-1-yl)(pyrrolidin-1-yl)methylene)cyanamide]	100 to 1000 nM
O=C(N1CCC(F)(F)CC1)N1CCC[C@@H](c2ncc3cnc4[nH]ccc4n23)C1 [Example #6, (R)-(3-(6H-imidazo[1,5-a]pyrrolo[2,3-e]pyrazin-1-yl)piperidin-1-yl)(4,4-difluoropiperidin-1-yl)methanone]	100 to 1000 nM
CC[C@@H]1C[C@H](Nc2ncc(C#N)s2)C[C@@H]1c1nnc2cnc3[nH]ccc3n12 [Example #8, 2-((1S,3R,4S)-3-ethyl-4-(6H-pyrrolo[2,3-e][1,2,4]triazolo[4,3-a]pyrazin-1-yl)cyclopentylamino)thiazole-5-carbonitrile]	100 to 1000 nM
O=S(=O)(NC12CCC(c3nnc4cnc5[nH]ccc5n34)(CC1)CC2)N1CCCC1 [Example #9, N-(4-(6H-pyrrolo[2,3-e][1,2,4]triazolo[4,3-a]pyrazin-1-yl)bicyclo[2.2.2]octan-1-yl)pyrrolidine-1-sulfonamide]	100 to 1000 nM

Compound	IC50
CC[C@@H]1C[C@H](NS(=O)(=O)C2CC2)C[C@@H]1c1nc(CCCO)c2cnc3[nH]ccc3n12 [Example #14, N-((1S,3R,4S)-3-ethyl-4-(3-(3-hydroxypropyl)-6H-imidazo[1,5-a]pyrrolo[2,3-e]pyrazin-1-yl)cyclopentyl)cyclopropanesulfonamide]	< 100 nM
CC[C@@H]1C[C@H](NS(=O)(=O)C2CC2)C[C@@H]1c1nc(CO)c2cnc3[nH]ccc3n12 [Example #17, N-((1S,3R,4S)-3-ethyl-4-(3-(hydroxymethyl)-6H-imidazo[1,5-a]pyrrolo[2,3-e]pyrazin-1-yl)cyclopentyl)cyclopropanesulfonamide]	< 100 nM
CC[C@@H]1C[C@H](NS(=O)(=O)C2CC2)C[C@@H]1c1nc(CCO)c2cnc3[nH]ccc3n12 [Example #18, N-((1S,3R,4S)-3-ethyl-4-(3-(2-hydroxyethyl)-6H-imidazo[1,5-a]pyrrolo[2,3-e]pyrazin-1-yl)cyclopentyl)cyclopropanesulfonamide]	100 to 1000 nM
c1cc2c(ncc3ncn(C4CCCCC4)c32)[nH]1 [Example #21, 1-cyclohexyl-1,6-dihydroimidazo[4,5-d]pyrrolo[2,3-b]pyridine]	100 to 1000 nM
CC[C@@H]1C[C@H](OC2CCOCC2)C[C@@H]1c1nnc2cnc3[nH]ccc3n12 [Example #22, 1-((1S,2R,4S)-2-ethyl-4-(tetrahydro-2H-pyran-4-yloxy)cyclopentyl)-6H-pyrrolo[2,3-e][1,2,4]triazolo[4,3-a]pyrazine]	> 1000 nM
CC[C@@H]1C[C@H](Nc2cnc(C#N)cn2)CN1c1ncc2cnc3[nH]ccc3n12 [Example #26, 5-((3S,5R)-5-ethyl-1-(6H-imidazo[1,5-a]pyrrolo[2,3-e]pyrazin-1-yl)pyrrolidin-3-ylamino)pyrazine-2-carbonitrile oxalate]	100 to 1000 nM
CC[C@@H]1C[C@H](NS(=O)(=O)CCC(F)(F)F)CN1c1ncc2cnc3[nH]ccc3n12 [Example #27, N-((3S,5R)-5-ethyl-1-(6H-imidazo[1,5-a]pyrrolo[2,3-e]pyrazin-1-yl)pyrrolidin-3-yl)-3,3,3-trifluoropropane-1-sulfonamide]	> 1000 nM
c1cc2c3c(cnc2[nH]1)CCCN3C1CCCCC1 [Example #28, 1-cyclohexyl-2,3,4,7-tetrahydro-1H-pyrrolo[2,3-h][1,6]naphthyridine]	> 1000 nM
O=S(=O)(NC12CCC(c3n[nH]c4cnc5[nH]ccc5c34)(CC1)CC2)C1CC1 [Example #29, N-(4-(3,6-dihydropyrazolo[4,3-d]pyrrolo[2,3-b]pyridin-1-yl)bicyclo[2.2.2]octan-1-yl)cyclopropanesulfonamide]	< 100 nM
CC[C@@H]1C[C@H](N(C#N)S(=O)(=O)C2CC2)C[C@@H]1c1nnc2cnc3[nH]ccc3n12 [Example #32, N-cyano-N-((1S,3R,4S)-3-ethyl-4-(6H-pyrrolo[2,3-e][1,2,4]triazolo[4,3-a]pyrazin-1-yl)cyclopentyl)cyclopropanesulfonamide]	100 to 1000 nM
C[C@@H]1CCN(C(=O)C2CCC(F)(F)CC2)C[C@@H]1c1ncc2cnc3[nH]ccc3n12 [H.1.1]	< 100 nM
C[C@@H]1CCN(C(=O)CC(F)(F)F)C[C@@H]1c1ncc2cnc3[nH]ccc3n12 [H.1.2]	< 100 nM
C#CCCC(=O)N1CC[C@@H](C)[C@@H](c2ncc3cnc4[nH]ccc4n23)C1 [H.1.6]	< 100 nM
C[C@@H]1CCN(C(=O)CCc2cc(Cl)no2)C[C@@H]1c1ncc2cnc3[nH]ccc3n12 [H.1.10]	< 100 nM
C[C@@H]1CCN(C(=O)C2CC(F)(F)C2)C[C@@H]1c1ncc2cnc3[nH]ccc3n12 [H.1.21]	< 100 nM
C[C@@H]1CCN(C(=O)CCC#N)C[C@@H]1c1ncc2cnc3[nH]ccc3n12 [H.1.25]	< 100 nM
O=C(C1CC(F)(F)C1)N1CCC[C@@H](c2ncc3cnc4[nH]ccc4n23)C1 [H.4.1]	100 to 1000 nM
C[C@@H]1CCN(C(=O)N2CCCCC2)C[C@@H]1c1ncc2cnc3[nH]ccc3n12 [I.1.1, ((3R,4R)-3-(6H-imidazo[1,5-a]pyrrolo[2,3-e]pyrazin-1-yl)-4-methylpiperidin-1-yl)(piperidin-1-yl)methanone]	< 100 nM
C[C@@H]1CCN(C(=O)N2CCOCC2)C[C@@H]1c1ncc2cnc3[nH]ccc3n12 [I.1.2]	< 100 nM
